pIC50: −log10 of the molar value.

This assay has as its target T1, FXR ligand binding domain (Homo sapiens, UniProt Q96RI1).
T1 sequence (Q96RI1 211-483 limits assumed): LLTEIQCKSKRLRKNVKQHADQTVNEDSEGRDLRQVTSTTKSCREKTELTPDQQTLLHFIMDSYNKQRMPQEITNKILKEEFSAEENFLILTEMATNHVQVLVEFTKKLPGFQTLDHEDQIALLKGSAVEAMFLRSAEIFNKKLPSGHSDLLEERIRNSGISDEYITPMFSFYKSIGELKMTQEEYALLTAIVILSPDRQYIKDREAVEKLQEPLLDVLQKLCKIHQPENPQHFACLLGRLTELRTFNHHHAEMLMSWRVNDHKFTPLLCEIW
Description: Radioligand binding assay (scintillation proximity radioligand displacement). For orientation: In a scintillation proximity assay essentially only radioactivity close to the scintillant gives light.
Description: Radioligand Binding Assay
Binding of test substances to the FXR ligand binding domain was assessed in a radioligand displacement assay. The assay was performed in a buffer consisting of 50 mM Hepes, pH 7.4, 10 mM NaCl, 5 mM MgCl2. […] All binding assays were performed in 96-well plates and the amount of bound ligand was measured on a Packard TopCount using OptiPlates (Packard). Dose response curves were performed within a range of concentration from 6×10^−9 M to 2.5×10^−5 M.
With `O=C(O)c1ccc(OCC(c2c3c(nn2-c2ccc(Cl)cc2)CCC3)C2CCCCC2)nc1` (stereo not drawn) [Example 7, 6-{2-[2-(4-Chloro-phenyl)-2,4,5,6-tetrahydro-cyclopentapyrazol-3-yl]-2-cyclohexyl-ethoxy}-nicotinic acid], the pIC50 (usually the IC50 on a negative log10 scale, so that one unit is a factor of ten) is 7.28.
The figure for `N#Cc1ccc(OCC(c2c3c(nn2-c2ccc(Cl)cc2)CCC3)C2CCCCC2)c(F)c1` (stereo not drawn) [Example 3, 4-{2-[2-(4-Chloro-phenyl)-2,4,5,6-tetrahydro-cyclopentapyrazol-3-yl]-2-cyclohexyl-ethoxy}-3-fluoro-benzonitrile] is 5.89; for `COC(=O)c1cc(C)c(OCC(c2c3c(nn2-c2ccc(Cl)cc2)CCC3)C2CCCCC2)c(C)c1` (stereo not drawn) [Example 1, 4-{2-[2-(4-Chloro-phenyl)-2,4,5,6-tetrahydro-cyclopentapyrazol-3-yl]-2-cyclohexyl-ethoxy}-3,5-dimethyl-benzoic acid methyl ester] it is 4.54; for `O=C(O)c1ccc(NC(=O)C(c2c3c(nn2-c2ccc(Cl)cc2)CCC3)C2CCCCC2)c(F)c1` (stereo not drawn) [Example 6, 4-{2-[2-(4-Chloro-phenyl)-2,4,5,6-tetrahydro-cyclopentapyrazol-3-yl]-2-cyclohexyl-acetylamino}-3-fluoro-benzoic acid] it is 6.22.
To `Fc1cc(-c2nnn[nH]2)ccc1OCC(c1c2c(nn1-c1ccc(Cl)cc1)CCC2)C1CCCCC1` (stereo not drawn) [Example 5, 2-(4-Chloro-phenyl)-3-{1-cyclohexyl-2-[2-fluoro-4-(2H-tetrazol-5-yl)-phenoxy]-ethyl}-2,4,5,6-tetrahydro-cyclopentapyrazole] belongs 7.04.
`CC(C)(Oc1ccc(NC(=O)C(c2c3c(nn2-c2ccc(Cl)cc2)CCCCC3)C2CCCCC2)c(F)c1)C(=O)O` (stereo not drawn) [Example 10, 2-(4-{2-[2-(4-Chloro-phenyl)-2,4,5,6,7,8-hexahydro-cycloheptapyrazol-3-yl]-2-cyclohexyl-acetylamino}-3-fluoro-phenoxy)-2-methyl-propionic acid] had a negative logarithm of the IC50 (pIC50) of 5.89.
The figure for `O=C(O)c1ccc(NC(=O)C(c2c3c(nn2-c2ccc(Cl)cc2)CCCCC3)C2CCCCC2)c(F)c1` (stereo not drawn) [Example 13, 4-{2-[2-(4-Chloro-phenyl)-2,4,5,6,7,8-hexahydro-cycloheptapyrazol-3-yl]-2-cyclohexyl-acetylamino}-3-fluoro-benzoic acid] is 5.77; for `O=C(NC1CCCCC1)C(c1c2c(nn1-c1ccc(Cl)cc1)CCC2)C1CCCCC1` (stereo not drawn) [Example 4, 2-[2-(4-Chloro-phenyl)-2,4,5,6-tetrahydro-cyclopentapyrazol-3-yl]-2,N-dicyclohexyl-acetamide] it is 5.48.
Turning to `O=C(NC1CCCCC1)C(c1c2c(nn1-c1ccc(Cl)cc1)CCCCC2)C1CCCCC1` (stereo not drawn) [Example 11, 2-[2-(4-Chloro-phenyl)-2,4,5,6,7,8-hexahydro-cycloheptapyrazol-3-yl]-2,N-dicyclohexyl-acetamide], the pIC50 is 5.62.
The figure for `CCOC(=O)C(C)(C)Oc1ccc(NC(=O)C(c2c3c(nn2-c2ccc(Cl)cc2)CCCCC3)C2CCCCC2)c(F)c1` (stereo not drawn) [Example 9, 2-(4-{2-[2-(4-Chloro-phenyl)-2,4,5,6,7,8-hexahydro-cycloheptapyrazol-3-yl]-2-cyclohexyl-acetylamino}-3-fluoro-phenoxy)-2-methyl-propionic acid ethyl ester] is 4.67; for `COC(=O)c1ccc(NC(=O)C(c2c3c(nn2-c2ccc(Cl)cc2)CCCCC3)C2CCCCC2)c(F)c1` (stereo not drawn) [Example 12, 4-{2-[2-(4-Chloro-phenyl)-2,4,5,6,7,8-hexahydro-cycloheptapyrazol-3-yl]-2-cyclohexyl-acetylamino}-3-fluoro-benzoic acid methyl ester] it is 5.15.
Consider `N#Cc1ccc(OCC(c2c3c(nn2-c2ccc(Cl)cc2)CCCCC3)C2CCCCC2)c(F)c1` (stereo not drawn) [Example 14, 4-{2-[2-(4-Chloro-phenyl)-2,4,5,6,7,8-hexahydro-cycloheptapyrazol-3-yl]-2-cyclohexyl-ethoxy}-3-fluoro-benzonitrile], for which the pIC50 was 4.67.
Molecule `Cc1cc(C(=O)O)cc(C)c1OCC(c1c2c(nn1-c1ccc(Cl)cc1)CCCCC2)C1CCCCC1` (stereo not drawn) [Example 15, 4-{2-[2-(4-Chloro-phenyl)-2,4,5,6,7,8-hexahydro-cycloheptapyrazol-3-yl]-2-cyclohexyl-ethoxy}-3,5-dimethyl-benzoic acid] showed a pIC50 of 6.28.
The figure for `O=C(O)c1ccc(SCC(c2c3c(nn2-c2ccc(Cl)cc2)CCC3)C2CCCCC2)cc1` (stereo not drawn) [Example 8, 4-{2-[2-(4-Chloro-phenyl)-2,4,5,6-tetrahydro-cyclopentapyrazol-3-yl]-2-cyclohexyl-ethylsulfanyl}-benzoic acid] is 5.96; for `Fc1cc(-c2nnn[nH]2)ccc1OCC(c1c2c(nn1-c1ccc(Cl)cc1)CCCCC2)C1CCCCC1` (stereo not drawn) [Example 16, 2-(4-Chloro-phenyl)-3-{1-cyclohexyl-2-[2-fluoro-4-(1H-tetrazol-5-yl)-phenoxy]-ethyl}-2,4,5,6,7,8-hexahydro-cycloheptapyrazole] it is 6.81.
